The values that follow are results of earlier work, collected in patent US20090005367A1, “COMPOSITION AND METHOD FOR TREATING ALCOHOLISM AND OTHER SUBSTANCE ADDICTIONS” (priority 2006, published 2009).

Like-named read-outs stand apart in the source and are kept apart here.

Test in series [1]: not given
The source holds these as a separate data set.

The subject of a further series is aldehyde dehydrogenase. The following applies: blood, after alcohol ingestion.
For series [2] the following is noted: oral / gastrointestinal tract.
Test in series [3]: not given
The source holds these as a separate data set.

As to `CC1=CC(=O)N2CC(=O)N(C)c3ccc(Cl)cc3C2(c2ccccc2)O1` (stereo not shown) [Ketazolam], the “Elimination Half-Life” value (parent drug) was 2 h.

In the case of `CN1CCN(/C=C2\N=C3CN=C(c4ccccc4Cl)c4cc([N+](=O)[O-])ccc4N3C2=O)CC1` [Loprazolam], the “Elimination Half-Life” value (parent drug) is 6 to 12 h.

With `N#CCCN1C(=O)C(O)N=C(c2ccccc2F)c2cc(Cl)ccc21` (stereo not shown) [Cinolazepam], for the setting “parent drug”, the “Elimination Half-Life” value is 9 h.

On to `CN1C(=O)C(O)N=C(c2ccccc2Cl)c2cc(Cl)ccc21` (stereo not shown) [Lormetazepam], for which the “Elimination Half-Life” value (parent drug) was 10 to 12 h.

Regarding `Cc1nnc2n1-c1ccc(Cl)cc1C(c1ccccc1)=NC2` [Alprazolam], for the setting “parent drug”, the “Elimination Half-Life” value was 6 to 12 h.

Turning to `CNC1=Nc2ccc(Cl)cc2C(c2ccccc2)=[N+]([O-])C1` [Chlordiazepoxide], where the note is “parent drug”, the “Elimination Half-Life” value was 5 to 30 h.

In the case of `CN1CCN=C(c2ccccc2)c2cc(Cl)ccc21` [Medazepam], under “parent drug”, the “Elimination Half-Life” value was 36 to 200 h.

Take `CCN(CC)C(=S)SSC(=S)N(CC)CC` [Disulfiram, bis(diethylthiocarbamoyl)disulfide]: in series [1], the “time until full effects occur after ingestion” value was 12 h. Further, the “time effective following administration of the last dose” value in series [1] (after last dose) is on record as “approximately one to two”. In addition, the “concentration of acetaldehyde compared with same amount of alcohol without disulfiram” value with aldehyde dehydrogenase was 5 to 10 times higher.

Regarding `CN1C(=O)CN=C(C2=CCCCC2)c2cc(Cl)ccc21` [Tetrazepam], where the note is “parent drug”, the “Elimination Half-Life” value is 3 to 26 h.

In the case of `Fc1ccccc1C1=NCC(=S)N(CC(F)(F)F)c2ccc(Cl)cc21` [Quazepam], the “Elimination Half-Life” value (parent drug) was 25 to 100 h.

As to `O=C1CN=C(c2ccccc2Cl)c2cc([N+](=O)[O-])ccc2N1` [Clonazepam], the Elimination Half-Life was 30 to 40 h. For the same compound, the “time until full effects occur after ingestion” value in series [1] was 1 to 4 h. In series [1] (in vivo), the duration of action is 30 to 40 h. The “Elimination Half-Life” value (parent drug) is 18 to 50 h. Also, in series [2], the absorption result was “rapidly and completely absorbed”.

Regarding `Cc1nnc2n1-c1ccc(Cl)cc1C(c1ccccc1Cl)=NC2` [Triazolam], where the note is “parent drug”, the “Elimination Half-Life” value is 2 h.

Take `Cc1ncc2n1-c1ccc(Cl)cc1C(c1ccccc1F)=NC2` [Midazolam]: the “Elimination Half-Life (h)” value (parent drug) is listed as 3 hours (1.8-6.

`CN1[C@@H]2CC[C@H]1C[C@@H](OC(=O)C(CO)c1ccccc1)C2` (stereo partly shown) [Atropine]: the “excreted in the urine as unchanged drug” value in series [3] was 30-50%.

In the case of `O=C1CN=C(c2ccccc2)c2cc([N+](=O)[O-])ccc2N1` [Nitrazepam], the “Elimination Half-Life” value (parent drug) was 15 to 38 h.

On to `O=C1Nc2ccc(Cl)cc2C(c2ccccc2Cl)=NC1O` (stereo not shown) [Lorazepam], for which, where the note is “parent drug”, the “Elimination Half-Life” value was 10 to 20 h.

For `CN1C(=O)CC(=O)N(c2ccccc2)c2cc(Cl)ccc21` [Clobazam], for the setting “parent drug”, the “Elimination Half-Life” value is 12 to 60 h.

Regarding `O=C1CN=C(c2ccccn2)c2cc(Br)ccc2N1` [Bromazepam], for the setting “parent drug”, the “Elimination Half-Life” value was 10 to 20 h.

Regarding `Clc1ccc2c(c1)C(c1ccccc1)=NCc1nncn1-2` [Estazolam], the “Elimination Half-Life” value (parent drug) is 10 to 24 h.
